Results reported in patent US20210077439A1 (priority 2016, published 2021).

Tests used:
[1] = in vivo; cited from earlier work
[2] = tested on: quadriceps (knee extensor musculature); set-up: species or system New Zealand White rabbits; conditions: rabbit, in vivo
[3] = in vivo; cited from earlier work; remark: listed apart in the source
[4] = tested on: quadriceps muscle; set-up: species or system New Zealand White rabbits; conditions: rabbit, in vivo
[5] = tested on: joints (arthritis); conditions: dog, in vivo
[6] = tested on: skeletal muscle; conditions: in vivo; cited from earlier work

What does the source list for `CC(C)(O)CC(=O)O` [HMB, β-hydroxy-β-methylbutyric acid]?
side effects [1]: no side effects; botox-induced loss of strength in the contralateral musculature [2]: prevented much of the botox-induced loss of strength; loss of HMB to urine [3]: 20-50%; contralateral muscle weights as a percentage of body weight versus botox (p<0.10) and control (p<0.03) groups [4]: larger contralateral musculature; muscle hypertrophy in the contralateral leg [4]: greatly increased; ataxia, owner-observed, after resuming the HMB regimen [5]: significant improvement; joint stability and movement, owner-observed outcome [5]: increased joint stability, decreased joint instability, improved balanced movement and stability of skeletal joints; mobility after resuming the HMB regimen during anti-seizure medication [5]: began standing up without assistance, and was able to climb stairs without significant assistance

Which “decrease in protein breakdown” value [6] does the source give for `CC(C)(O)CC(=O)O` [HMB-FA] here?
The value was −56%.

And the “increase in skeletal muscle protein synthesis” value [6]?
The value was “+70%”.

What about the “plasma levels of HMB compared with calcium HMB” value [3] of the same compound?
The value was “approximately double”.

And the “time to plasma level compared with calcium HMB” value [3]?
The value was “about one-quarter the time”.

Which “adverse effect of the seizure treatment” value [5] does the source give for `[Br-].[K+]` [potassium bromide, reference compound] here?
Its value is “severe ataxia”.

For `CCC1(c2ccccc2)C(=O)NC(=O)NC1=O` [phenobarbital, reference compound], which “adverse effect of the seizure treatment” value [5] is on record?
The value was “severe ataxia”.

With `NCC1(CC(=O)O)CCCCC1` [gabapentin, reference compound] as the compound, how does the “adverse effect of the seizure treatment” value [5] read?
Its value is “severe ataxia”.
